Test results from US20250075190A1, “DE NOVO DESIGNED LUCIFERASE” (UNIVERSITY OF WASHINGTON, priority 2022, published 2025).

How the values were obtained:
Assay type in all cases: biochemical
[1] = test system: LuxSit (de novo designed luciferase, SEQ ID NO:1) variant H98N; experiment: Michaelis-Menten kinetics of LuxSit H98N with DTZ; conditions: substrate DTZ; mean (95% CI), n = 3; Tris pH 8.0
Description: (§1) Synthetic genes and oligonucleotides were purchased from Integrated DNA Technologies or GenScript. The synthetic gene was inserted between NdeI and XhoI sites of a pET29b+ vector, containing an N-terminal hexahistidine tag followed by a TEV protease cleavage site and a C-terminal stop codon. Restriction endonucleases, Q5 PCR polymerase, and T4 ligase were purchased from NEB. Plasmid DNA, PCR products, or digested fragments were purified by Qiagen DNA purification kits. DNA sequences were analyzed by Genewiz. Coelenterazine (CTZ) was purchased from Gold Biotechnology. Diphenylterazine (DTZ), pyridyl diphenylterazine (8pyDTZ), and Furimazine (FRZ) were purchased from MedChemExpress. […] DNA and protein concentrations were determined by a NanoDrop™ small-volume 8 channel UV/vis spectrometer. […] All luminescence measurements were acquired by a Biotek Synergy Neo2T™ Multi-Mode Plate Reader. To convert relative arbitrary unit (RLU) to the number of photons, Neo2 plate reader was calibrated by determining the chemiluminescence of luminol with known quantum yield in the presence of horseradish peroxidase and hydrogen peroxide in K2CO3 aqueous solution as previously described^45. SDS PAGE and luminescence images were captured by a Bio-Rad ChemiDocT™ XRS+. Images were analyzed using the Fiji image analysis software. […]

[2] = test system: LuxSit (de novo designed luciferase, SEQ ID NO:1) variant A96I; experiment: Michaelis-Menten kinetics of LuxSit A96I with DTZ; conditions: substrate DTZ; mean (95% CI), n = 3; Tris pH 8.0
Description: as §1

[3] = test system: LuxSit (de novo designed luciferase, SEQ ID NO:1) variant M110C; experiment: Michaelis-Menten kinetics of LuxSit M110C with DTZ; conditions: substrate DTZ; mean (95% CI), n = 3; Tris pH 8.0
Description: as §1

[4] = test system: LuxSit (de novo designed luciferase, SEQ ID NO:1) variant R60C; experiment: Michaelis-Menten kinetics of LuxSit R60C with DTZ; conditions: substrate DTZ; mean (95% CI), n = 3; Tris pH 8.0
Description: as §1

[5] = test system: LuxSit (de novo designed luciferase, SEQ ID NO:1) variant A96M; experiment: Michaelis-Menten kinetics of LuxSit A96M with DTZ; conditions: substrate DTZ; mean (95% CI), n = 3; Tris pH 8.0
Description: as §1

[6] = test system: LuxSit-f (de novo designed luciferase; LuxSit variant A96M/M110V, 60R/96M/98H/110V; SEQ ID NO:3); experiment: Michaelis-Menten kinetics of LuxSit-f with DTZ; conditions: substrate DTZ; for Km / Vmax: Tris pH 8.0
Description: (§2) Synthetic genes and oligonucleotides were purchased from Integrated DNA Technologies or GenScript. The synthetic gene was inserted between NdeI and XhoI sites of a pET29b+ vector, containing an N-terminal hexahistidine tag followed by a TEV protease cleavage site and a C-terminal stop codon. Restriction endonucleases, Q5 PCR polymerase, and T4 ligase were purchased from NEB. Plasmid DNA, PCR products, or digested fragments were purified by Qiagen DNA purification kits. DNA sequences were analyzed by Genewiz. Coelenterazine (CTZ) was purchased from Gold Biotechnology. Diphenylterazine (DTZ), pyridyl diphenylterazine (8pyDTZ), and Furimazine (FRZ) were purchased from MedChemExpress. All other coelenterazine analogs (bis-CTZ: bisdeoxycoelenterazine; f-CTZ: f-Coelenterazine; e-CTZ: e-Coelenterazine-F; PP-CTZ: methoxy e-Coelenterazine; v-CTZ: v-Coelenterazine. All other chemicals were purchased from Sigma-Aldrich or Fisher Scientific and used without further purification. To identify the molecular mass of each protein, intact mass spectra were obtained via reverse-phase LC/MS on an Agilent 6230B TOF on an AdvanceBio RP-Desalting column and subsequently deconvoluted by Bioconfirm software using a […] algorithm. AKTA pure M with UNICORN 6.3.2 Workstation control (GE Healthcare) coupled with a Superdex™ 75 Increase 10/300 GL column was used for size exclusion chromatography. DNA and protein concentrations were determined by a NanoDrop™ small-volume 8 channel UV/vis spectrometer. CD spectra and CD melting experiments were performed by the default setting on a J-1500 Circular Dichroism Spectropolarimeter (Jasco). All luminescence measurements were acquired by a Biotek Synergy Neo2T™ Multi-Mode Plate Reader. To convert relative arbitrary unit (RLU) to the number of photons, Neo2 plate reader was calibrated by determining the chemiluminescence of luminol with known quantum yield in the presence of horseradish peroxidase and hydrogen peroxide in K2CO3 aqueous solution as previously described^45. SDS PAGE and luminescence images were captured by a Bio-Rad ChemiDocT™ XRS+. Images were analyzed using the Fiji image analysis software.
(§3) Lemo21(DE3) strain was used for transformation with the pET29b+ plasmid encoding the gene of interest. Transformed cells were grown for 12 h in TB medium supplemented with kanamycin. Cells were inoculated at 1:50 ratio in 100 mL fresh TB medium, grown at 37° C. for 4 h, and then induced by IPTG for an additional 18 h at 16° C. Cells were harvested by centrifugation at 4,000 g for 10 min and resuspended in 30 mL lysis buffer (20 mM Tris-HCl pH 8.0, 300 mM NaCl, 30 mM imidazole, and Pierce™ Protease Inhibitor Tablets). Cell resuspensions were lysed by sonication for 5 min (10 s per cycle). Lysates were clarified by centrifugation at 24,000 g at 12° C. for 40 min and pre-equilibrated with 1 mL of Ni-NTA nickel agarose at 4° C. for 1 h. The resin was washed twice with 10 mL wash buffer and then eluted in 1 mL elution buffer (20 mM Tris-HCl pH 8.0, 300 mM NaCl, 300 mM imidazole). The eluted proteins were purified by size exclusion chromatography in PBS. Fractions were collected based on A280 trace, snap-frozen in liquid nitrogen, and stored at −80° C.,
(§4) To create libraries of each single amino acid substitution at residues 13, 14, 17, 18, 35, 37, 38, 49, 52, 53, 56, 60, 65, 81, 83, 94, 96, 98, 100, 110, and 112, forward oligos mixture with degenerate codons (NDT, VHG, and TGG=1:1:0.1 ratio) and an overlapped reverse oligo were used to amplify the plasmid of LuxSit. The resulting PCR products were circularized by Gibson Assembly protocol and were subsequently used to transform ElectroMAX™ DH10B Cells. The cells were plated on 150 mm×15 mm LB agar plates supplemented with carbenicillin and L-arabinose, incubated at 37° C. overnight, and left at 4° C. for another 24 h. As described in the screening of luciferase libraries, colony-based screening by spraying DTZ solution was used to identify active colonies. […]. […]

[7] = test system: LuxSit (de novo designed luciferase, SEQ ID NO:1) variant Y14E; experiment: Michaelis-Menten kinetics of LuxSit Y14E with DTZ; conditions: substrate DTZ; mean (95% CI), n = 3; Tris pH 8.0
Description: as §1

[8] = test system: LuxSit-i (de novo designed luciferase; LuxSit variant R60S/A96L/M110V, 60S/96L/98H/110V; SEQ ID NO:2); experiment: Michaelis-Menten kinetics of LuxSit-i with DTZ; conditions: substrate DTZ; for Km / Vmax: Tris pH 8.0
Description: as §2, §3, §4

[9] = test system: LuxSit (de novo designed luciferase, parent, 60R/96A/98H/110M; SEQ ID NO:1); experiment: Michaelis-Menten kinetics of LuxSit (parent) with DTZ; conditions: substrate DTZ; mean (95% CI), n = 3; Tris pH 8.0
Description: as §1

O=c1c(Cc2ccccc2)nc2c(-c3ccccc3)[nH]c(-c3ccccc3)cn1-2 [DTZ, Diphenylterazine]
Km [1]: 29.3 µM | Vmax [1]: 0.17(0.15-0.2) ×10^−2 photon s^−1 molecule^−1 | Km [2]: 17.5 µM | Vmax [2]: 1.3(1.1-1.5) ×10^−2 photon s^−1 molecule^−1 | Km [3]: 67.5 µM | Vmax [3]: 0.4(0.3-0.6) ×10^−2 photon s^−1 molecule^−1 | Km [4]: 45.2 µM | Vmax [4]: 0.57(0.44-0.8) ×10^−2 photon s^−1 molecule^−1 | Km [5]: 4.8 µM | Vmax [5]: 6.0(5.3-6.9) ×10^−2 photon s^−1 molecule^−1 | apparent Michaelis constant KM ([6]; in words (FIG. 3a)): low μM range | Km ([6]; 100 nM enzyme, Table 3): 8.9 µM | Vmax ([6]; 100 nM enzyme, Table 3): 0.20 photon s^−1 molecule^−1 | kcat ([6]; kcat=Vmax/LQY, Table 3): 1.8 s⁻¹ | Km ([6]; mean (95% CI), n = 3, Table 4): 8.9 µM | Vmax ([6]; mean (95% CI), n = 3, Table 4): 19.7(17.9-21.9) ×10^−2 photon s^−1 molecule^−1 | Km [7]: 12.6 µM | Vmax [7]: 0.19(0.17-0.21) ×10^−2 photon s^−1 molecule^−1 | apparent Michaelis constant KM ([8]; in words (FIG. 3a)): low μM range | Km ([8]; 100 nM enzyme, Table 3): 2.5 µM | Vmax ([8]; 100 nM enzyme, Table 3): 0.36 photon s^−1 molecule^−1 | kcat ([8]; kcat=Vmax/LQY, Table 3): 2.5 s⁻¹ | Km ([8]; mean (95% CI), n = 3, Table 4): 2.5 µM | Vmax ([8]; mean (95% CI), n = 3, Table 4): 36.1(33.7-38.6) ×10^−2 photon s^−1 molecule^−1 | Km [9]: 18.3 µM | Vmax [9]: 0.32(0.29-0.37) ×10^−2 photon s^−1 molecule^−1
